Data as given in PubChem BioAssay AID248 (DTP/NCI, 2004).
Several values for one entry are separate records, joined by “and”; a condition that tells them apart may be missing. Equal values may be shown once. Inconclusive results and toxic doses are left out. Cut-off read from the data, not from the text of the source: active = T/C of 150% or more; inactive = T/C below 125%.

Test system: L1210 leukemia ip in BDF1 mice, survival T/C
Assay: NCI In Vivo Anticancer Drug Screen. Data for tumor model L1210 Leukemia (intraperitoneal) in B6D2F1 (BDF1) mice
Conditions: higher = longer survival
In short: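 Tumor cells were implanted, animals were treated, and survival was followed. The result divides the treated measurement by the vehicle-control measurement.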

[1] = endpoint: mean survival time, dose: 100.0 mg/kg/injection, schedule: Q01DX001 (ip), vehicle: carboxymethylcellulose (CMC)
[2] = endpoint: mean survival time, dose: 200.0 mg/kg/injection, schedule: Q01DX001 (ip), vehicle: carboxymethylcellulose (CMC)
[3] = endpoint: mean survival time, dose: 400.0 mg/kg/injection, schedule: Q01DX001 (ip), vehicle: carboxymethylcellulose (CMC)
[4] = endpoint: mean survival time, dose: 50.0 mg/kg/injection, schedule: Q01DX001 (ip), vehicle: saline
[5] = endpoint: mean survival time, dose: 100.0 mg/kg/injection, schedule: Q01DX001 (ip), vehicle: saline
[6] = endpoint: mean survival time, dose: 200.0 mg/kg/injection, schedule: Q01DX001 (ip), vehicle: saline
[7] = endpoint: mean survival time, dose: 400.0 mg/kg/injection, schedule: Q01DX001 (ip), vehicle: saline
[8] = endpoint: mean survival time, dose: 100.0 mg/kg/injection, schedule: Q01DX009 (ip), vehicle: Klucel (hydroxypropylcellulose) (HPC)
[9] = endpoint: mean survival time, dose: 100.0 mg/kg/injection, schedule: Q04DX003 (ip), vehicle: Klucel (hydroxypropylcellulose) (HPC)
[10] = endpoint: mean survival time, dose: 200.0 mg/kg/injection, schedule: Q04DX003 (ip), vehicle: Klucel (hydroxypropylcellulose) (HPC)
[11] = endpoint: mean survival time, dose: 400.0 mg/kg/injection, schedule: Q04DX003 (ip), vehicle: Klucel (hydroxypropylcellulose) (HPC)
[12] = endpoint: mean survival time, dose: 100.0 mg/kg/injection, schedule: Q04DX003 (ip), vehicle: saline with Tween-80
[13] = endpoint: mean survival time, dose: 200.0 mg/kg/injection, schedule: Q04DX003 (ip), vehicle: saline with Tween-80
[14] = endpoint: mean survival time, dose: 400.0 mg/kg/injection, schedule: Q04DX003 (ip), vehicle: saline with Tween-80
[15] = endpoint: mean survival time, dose: 100.0 mg/kg/injection, schedule: Q04DX002 (ip), vehicle: saline
[16] = endpoint: mean survival time, dose: 200.0 mg/kg/injection, schedule: Q04DX002 (ip), vehicle: saline
[17] = endpoint: mean survival time, dose: 400.0 mg/kg/injection, schedule: Q04DX002 (ip), vehicle: saline

Measured: T/C

O=C1OCC(C(=O)c2ccccc2)C1=Nc1ccccc1O (configuration not stated)
inactive: endpoint: mean survival time, dose: 50.0 mg/kg/injection, schedule: Q01DX001 (ip), vehicle: carboxymethylcellulose (CMC) 94 % of control | [1] 100 % of control | [2] 100 % of control | [3] 92 % of control

CC(=O)C1Cc2ccccc2C1=O (configuration not stated)
inactive: [4] 100 % of control | [5] 97 % of control | [6] 106 % of control | [7] 108 % of control

CC/C=C(\C)C1(CCC)C(N)=NC(=O)N=C1N
inactive: endpoint: mean survival time, dose: 75.0 mg/kg/injection, schedule: Q01DX001 (ip), vehicle: carboxymethylcellulose (CMC) 93 % of control | endpoint: mean survival time, dose: 150.0 mg/kg/injection, schedule: Q01DX001 (ip), vehicle: carboxymethylcellulose (CMC) 91 % of control

CC(C)OC(=O)Nc1ccc(-c2ccc(NC(=O)OC(C)C)cc2)cc1
inactive: [8] 95 % of control | [9] 91 % of control | endpoint: mean survival time, dose: 200.0 mg/kg/injection, schedule: Q01DX009 (ip), vehicle: Klucel (hydroxypropylcellulose) (HPC) 97 % of control | [10] 91 % of control | endpoint: mean survival time, dose: 400.0 mg/kg/injection, schedule: Q01DX009 (ip), vehicle: Klucel (hydroxypropylcellulose) (HPC) 97 % of control | [11] 98 % of control

O=c1[nH]cnc2c1ncn2C1CCC(CO)C1 (configuration not stated)
inactive: [1] 100 % of control | endpoint: mean survival time, dose: 177.0 mg/kg/injection, schedule: Q01DX001 (ip), vehicle: carboxymethylcellulose (CMC) 98 % of control | [2] 96 % of control | endpoint: mean survival time, dose: 266.0 mg/kg/injection, schedule: Q01DX001 (ip), vehicle: carboxymethylcellulose (CMC) 98 % of control | endpoint: mean survival time, dose: 600.0 mg/kg/injection, schedule: Q01DX001 (ip), vehicle: carboxymethylcellulose (CMC) 100 % of control

O=C(Nc1cccc(O)c1)OCCCl
inactive: endpoint: mean survival time, dose: 100.0 mg/kg/injection, schedule: Q01DX001 (ip), vehicle: saline + alcohol 105 % of control | endpoint: mean survival time, dose: 200.0 mg/kg/injection, schedule: Q01DX001 (ip), vehicle: saline + alcohol 102 % of control | endpoint: mean survival time, dose: 400.0 mg/kg/injection, schedule: Q01DX001 (ip), vehicle: saline + alcohol 92 % of control

COc1ccc2c(c1)CCc1cnoc1-2
inactive: [9] 93 % of control | [10] 95 % of control | [11] 95 % of control

CC(=O)Nc1ccc(/C=N/N2CCN(/N=C/c3ccc(NC(C)=O)cc3)CC2)cc1
inactive: [5] 86 % of control | [6] 96 % of control | [7] 92 % of control

CCO/C=C1\SC(=S)N(c2cccc(OC)c2)C1=O
inactive: endpoint: mean survival time, dose: 117.0 mg/kg/injection, schedule: Q01DX009 (ip), vehicle: saline with Tween-80 116 % of control | endpoint: mean survival time, dose: 176.0 mg/kg/injection, schedule: Q01DX009 (ip), vehicle: saline with Tween-80 108 % of control | endpoint: mean survival time, dose: 264.0 mg/kg/injection, schedule: Q01DX009 (ip), vehicle: saline with Tween-80 121 % of control | endpoint: mean survival time, dose: 400.0 mg/kg/injection, schedule: Q01DX009 (ip), vehicle: saline with Tween-80 117 % of control

Cc1nc2nccnc2[nH]1
inactive: endpoint: mean survival time, dose: 100.0 mg/kg/injection, schedule: Q01DX009 (ip), vehicle: saline sonified 100 % of control | [12] 96 % of control | endpoint: mean survival time, dose: 200.0 mg/kg/injection, schedule: Q01DX009 (ip), vehicle: saline sonified 92 % of control | [13] 96 % of control | endpoint: mean survival time, dose: 400.0 mg/kg/injection, schedule: Q01DX009 (ip), vehicle: saline sonified 96 % of control | [14] 96 % of control

O=C(O)C/C=C/c1ccccc1Br
inactive: endpoint: mean survival time, dose: 100.0 mg/kg/injection, schedule: Q01DX001 (ip), vehicle: Klucel (hydroxypropylcellulose) (HPC) 91 % of control | endpoint: mean survival time, dose: 200.0 mg/kg/injection, schedule: Q01DX001 (ip), vehicle: Klucel (hydroxypropylcellulose) (HPC) 101 % of control | endpoint: mean survival time, dose: 400.0 mg/kg/injection, schedule: Q01DX001 (ip), vehicle: Klucel (hydroxypropylcellulose) (HPC) 95 % of control

CCOC(=O)CC1(C)CCC2C1C(=O)OC2(C)C (configuration not stated)
inactive: [5] 105 % of control | [6] 104 % of control | [7] 110 % of control

O=C1c2ccccc2C(Br)(c2ccccc2)C1Br (configuration not stated)
inactive: endpoint: mean survival time, dose: 12.5 mg/kg/injection, schedule: Q01DX009 (ip), vehicle: other 93 % of control | endpoint: mean survival time, dose: 25.0 mg/kg/injection, schedule: Q01DX009 (ip), vehicle: other 89 % of control

C=C1C(=O)OC2C1CCC(C)C1CC(O)C(O)C12C (configuration not stated)
inactive: endpoint: mean survival time, dose: 12.5 mg/kg/injection, schedule: Q04DX003 (ip), vehicle: Klucel (hydroxypropylcellulose) (HPC) 96 % of control | endpoint: mean survival time, dose: 25.0 mg/kg/injection, schedule: Q04DX003 (ip), vehicle: Klucel (hydroxypropylcellulose) (HPC) 101 % of control | endpoint: mean survival time, dose: 50.0 mg/kg/injection, schedule: Q04DX003 (ip), vehicle: Klucel (hydroxypropylcellulose) (HPC) 101 % of control

CN(C)c1ccc(/C=C/c2ccnc3ccccc23)cc1
inactive: endpoint: mean survival time, dose: 4.0 mg/kg/injection, schedule: Q01DX Z (ip), vehicle: saline 103 % of control | endpoint: mean survival time, dose: 5.0 mg/kg/injection, schedule: Q01DX010 (ip), vehicle: saline 94 % of control and 100 % of control | endpoint: mean survival time, dose: 6.0 mg/kg/injection, schedule: Q01DX Z (ip), vehicle: saline 103 % of control | endpoint: mean survival time, dose: 8.0 mg/kg/injection, schedule: Q01DX Z (ip), vehicle: saline 103 % of control | endpoint: mean survival time, dose: 10.0 mg/kg/injection, schedule: Q01DX009 (ip), vehicle: saline 93 % of control and 101 % of control | endpoint: mean survival time, dose: 10.0 mg/kg/injection, schedule: Q01DX010 (ip), vehicle: saline 98 % of control | endpoint: mean survival time, dose: 10.0 mg/kg/injection, schedule: Q01DX Z (ip), vehicle: saline 97 % of control | endpoint: mean survival time, dose: 20.0 mg/kg/injection, schedule: Q01DX009 (ip), vehicle: saline 95 % of control and 97 % of control | endpoint: mean survival time, dose: 20.0 mg/kg/injection, schedule: Q01DX010 (ip), vehicle: saline 100 % of control and 91 % of control | endpoint: mean survival time, dose: 40.0 mg/kg/injection, schedule: Q01DX009 (ip), vehicle: saline 95 % of control and 88 % of control | endpoint: mean survival time, dose: 40.0 mg/kg/injection, schedule: Q01DX010 (ip), vehicle: saline 93 % of control and 100 % of control | [4] 101 % of control | endpoint: mean survival time, dose: 64.0 mg/kg/injection, schedule: Q01DX010 (iv), vehicle: saline 108 % of control | endpoint: mean survival time, dose: 80.0 mg/kg/injection, schedule: Q01DX009 (ip), vehicle: saline 101 % of control | [1] 103 % of control | [5] 97 % of control | endpoint: mean survival time, dose: 128.0 mg/kg/injection, schedule: Q01DX010 (iv), vehicle: saline 87 % of control | [2] 109 % of control | [6] 103 % of control | endpoint: mean survival time, dose: 256.0 mg/kg/injection, schedule: Q01DX010 (iv), vehicle: saline 92 % of control | [3] 106 % of control | endpoint: mean survival time, dose: 800.0 mg/kg/injection, schedule: Q01DX001 (ip), vehicle: carboxymethylcellulose (CMC) 97 % of control | endpoint: median survival time, dose: 10.0 mg/kg/injection, schedule: Q01DX009 (ip), vehicle: saline 100 % of control and 87 % of control | endpoint: median survival time, dose: 20.0 mg/kg/injection, schedule: Q01DX009 (ip), vehicle: saline 100 % of control and 87 % of control | endpoint: median survival time, dose: 40.0 mg/kg/injection, schedule: Q01DX009 (ip), vehicle: saline 93 % of control and 105 % of control | endpoint: median survival time, dose: 80.0 mg/kg/injection, schedule: Q01DX009 (ip), vehicle: saline 100 % of control and 87 % of control

Cc1cc(=O)[nH]c(N/N=C/c2ccc(N(CCCl)CCCl)cc2)n1
inactive: [12] 102 % of control | [13] 105 % of control | [14] 109 % of control

CN(C)CCCN1CCC2(CC1)NC(=O)NC2=O
inactive: [15] 103 % of control | [16] 103 % of control | [17] 103 % of control

Cc1cc(C)c2ccc(=O)[nH]c2n1
inactive: [5] 92 % of control | [6] 101 % of control | [7] 101 % of control

CCOC(=O)c1cnc(SCc2ccccc2)nc1Nc1ccccc1Cl
inactive: [12] 94 % of control | [13] 88 % of control

Cc1ccc(S(=O)(=O)CCN2CCc3ccccc3C2)cc1
inactive: [5] 103 % of control | [6] 100 % of control | [7] 97 % of control

CC=C1C(C(=O)O)C1C(=O)O (configuration not stated)
inactive: endpoint: mean survival time, dose: 25.0 mg/kg/injection, schedule: Q01DX009 (ip), vehicle: Klucel (hydroxypropylcellulose) (HPC) 93 % of control | endpoint: mean survival time, dose: 50.0 mg/kg/injection, schedule: Q01DX009 (ip), vehicle: Klucel (hydroxypropylcellulose) (HPC) 93 % of control | [8] 95 % of control and 96 % of control | [15] 115 % of control | [16] 107 % of control | [17] 113 % of control
